Laboratory results as given in PubChem BioAssay AID1963851 (Molecular Pharmacology Branch, DTP, NCI, 2024).
Values joined by “and” are separate entries in the source; they are usually repeats but may differ in a detail not shown here. Equal values may be shown once.

System: 188146-221-R-J1-PDC complex spheroid viability
Assay: Anticancer human tumor 188146-221-R-J1-PDC patient-derived colon adenocarcinoma cell line growth inhibition [POLQ]
Settings: for viability, T/C: stronger effect = lower value
Experimental: Multicellular complex tumor spheroid response to Polymerase (POL) inhibitors (novobiocin, ART-558, RP6685) in combination with a variety of drugs and investigational agents in selected tumor cell lines
The POL inhibitors (novobiocin, ART-558, and RP6685) were evaluated both individually and in combination with standard of care and investigational anticancer small molecules within a complex spheroid model of solid tumors. . Complex spheroids include a stromal component modeled by human endothelial cells (HUVEC) and fibroblasts modeled by human mesenchymal stem cells (MSCs). The concentration ranges selected for each drug and investigational agent were based upon clinically achievable concentrations if the clinical Cmax of the agent was known.
Compounds. The drugs and investigational agents: novobiocin (NSC847541), ART-558 (NSC835418), RP-6685 (NSC848927), peposertib (NSC802822), ceralasertib (NSC780249), elimusertib (NSC800525), camonsertib (NSC841442), AZD-1390 (NSC803789), olaparib (NSC753686), talazoparib (NSC767125), rucaparib (NSC756644), sotorasib (NSC818433), MRTX-1133 (NSC836407), SN-38 (NSC673596), topotecan (NSC609699), epotoside (NSC141540), doxorubicin (NSC123127), gemcitabine (NSC613327), 5-fluorouracil (NSC19893), paclitaxel (NSC125973), vemurafenib (NSC761431), MSA-2 (NSC828583), SN-011 (NSC837082), adavosertib (NSC754352), prexasertib (NSC758257), carboplatin (NSC241240) and oxaliplatin (NSC266046), were obtained from the National Cancer Institute (NCI) Developmental Therapeutics Program Chemical Repository (21). The FDA-approved anticancer drug set is available from the Developmental Therapeutics Program at https://dtp.cancer.gov/organization/dscb/obtaining/. […] The stock solutions were prepared in dimethyl sulfoxide (DMSO, Sigma-Aldrich, St. Louis, MO, cat. D2650), except for the platinum compounds which were prepared in saline (Quality Biological, Gaithersburg, MD, cat. 114-055-101), at 800-fold the tested concentration and stored at -70 degrees C prior to their use. All drugs and investigational agents were tested over a range starting from a high concentration at or near the clinical Cmax and decreasing in half-log increments. If the clinical Cmax for an agent had not been determined, the highest concentration tested was 10 microM, except for SN-38, which was tested at a high concentration of 1 microM.
Cell Culture. All cells were maintained in an incubator at 37 degrees C and 5% CO2 with 95% humidity. The PDC lines were cultured according to standard operating procedures established by the NCI PDMR (https://pdmr.cancer.gov). Table 3 of the manuscript, lists the cell lines along with the number of the three cell types plated to form the mct-spheroids and media for tumor cell growth. After thawing, all PDC lines, except 997537-175-T-J1-PDC and 415267-285-R-J2-PDC, were cultured in Matrigel-coated flasks prepared with a working solution of 1X Ham's F-12 nutrient mix, without supplementation (Thermo Fisher Scientific, cat. 11765054), 100 U/mL penicillin-streptomycin (Thermo Fisher Scientific, cat. 15140122), and 2.5% Matrigel (Corning Inc., Corning, NY, cat. 354248) for the first three passages. The two PDC lines 997537-175-T-J1-PDC and 415267-285-R-J2-PDC were cultured on uncoated flasks. The 857933-349-R-J2-PDC line was cultured in 6C/Colon 1B media containing advanced DMEM/F-12 (Thermo Fisher Scientific, cat. 12634028), 10 mM HEPES (Thermo Fisher Scientific, cat. 15630080), 1X GlutaMAX supplement (Thermo Fisher Scientific, cat. 35050061), 0.1 mg/mL primocin (InvivoGen, San Diego, CA, cat. ant-pm-2), 10% defined fetal bovine serum, heat inactivated (HyClone Laboratories Inc., Logan, UT, cat. SH30070.03HI), 50% L-WRN conditioned media (ATCC, cat. CRL-3276), 1.25 mM N-Acetyl-L-cysteine (Sigma-Aldrich, cat. A9165), 10 mM nicotinamide (Sigma-Aldrich, cat. N0636), 1X B-27 supplement (Thermo Fisher Scientific, cat. 17504044), 1X N-2 supplement (Thermo Fisher Scientific, cat. […]
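Further: spheroids exposed to compounds for seven days.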
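Wherever viability, T/C is given: 100% = DMSO vehicle control viability.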

COc1cccc2c1C(=O)c1c(O)c3c(c(O)c1C2=O)CC(O)(C(=O)CO)CC3OC1CC(N)C(O)C(C)O1 (stereo not given)
viability, T/C (compound 0.0316 µM): 78% and 71.8% and 78.2% | viability, T/C (compound 0.1 µM): 60.5% and 38.2% and 54.6% | viability, T/C (compound 0.316 µM): 32.8% and 29.6% and 32.9% | viability, T/C (compound 1 µM): 8.2% and 10% and 11.1% | viability, T/C (compound 3.16 µM): 1.38% and 0.34% and 0.33% | viability, T/C (compound 10 µM): 0.57% and 0.47% and 0.49% | IC50 (curve of compound): 155 nM and 73.6 nM and 132 nM

Cn1ncnc1[C@H]1c2n[nH]c(=O)c3cc(F)cc(c23)N[C@@H]1c1ccc(F)cc1 + Cc1cccc(N(C)C(=O)C2C(O)CCN2c2nc(C)cc(C(F)(F)F)c2C#N)c1
IC50 (curve of first compound, second compound 0.0316 µM): > 100 nM | IC50 (curve of first compound, second compound 0.1 µM): > 100 nM | IC50 (curve of first compound, second compound 0.316 µM): > 100 nM | IC50 (curve of first compound, second compound 1 µM): > 100 nM | IC50 (curve of first compound, second compound 3.16 µM): > 100 nM | IC50 (curve of first compound, second compound 10 µM): > 100 nM | viability, T/C (second compound 0.0316 µM, first compound 0.000316 µM): 97.2% | viability, T/C (second compound 0.0316 µM, first compound 0.001 µM): 97.4% | viability, T/C (second compound 0.0316 µM, first compound 0.00316 µM): 91.8% | viability, T/C (second compound 0.0316 µM, first compound 0.01 µM): 98.3% | viability, T/C (second compound 0.0316 µM, first compound 0.0316 µM): 99.3% | viability, T/C (second compound 0.0316 µM, first compound 0.1 µM): 88% | viability, T/C (second compound 0.1 µM, first compound 0.000316 µM): 106% | viability, T/C (second compound 0.1 µM, first compound 0.001 µM): 107% | viability, T/C (second compound 0.1 µM, first compound 0.00316 µM): 101% | viability, T/C (second compound 0.1 µM, first compound 0.01 µM): 84.8% | viability, T/C (second compound 0.1 µM, first compound 0.0316 µM): 89.9% | viability, T/C (second compound 0.1 µM, first compound 0.1 µM): 103% | viability, T/C (second compound 0.316 µM, first compound 0.000316 µM): 101% | viability, T/C (second compound 0.316 µM, first compound 0.001 µM): 104% | viability, T/C (second compound 0.316 µM, first compound 0.00316 µM): 101% | viability, T/C (second compound 0.316 µM, first compound 0.01 µM): 101% | viability, T/C (second compound 0.316 µM, first compound 0.0316 µM): 90.8% | viability, T/C (second compound 0.316 µM, first compound 0.1 µM): 104% | viability, T/C (second compound 1 µM, first compound 0.000316 µM): 107% | viability, T/C (second compound 1 µM, first compound 0.001 µM): 99.6% | viability, T/C (second compound 1 µM, first compound 0.00316 µM): 105% | viability, T/C (second compound 1 µM, first compound 0.01 µM): 102% | viability, T/C (second compound 1 µM, first compound 0.0316 µM): 89% | viability, T/C (second compound 1 µM, first compound 0.1 µM): 93.5% | viability, T/C (second compound 3.16 µM, first compound 0.000316 µM): 100% | viability, T/C (second compound 3.16 µM, first compound 0.001 µM): 105% | viability, T/C (second compound 3.16 µM, first compound 0.00316 µM): 95.4% | viability, T/C (second compound 3.16 µM, first compound 0.01 µM): 90% | viability, T/C (second compound 3.16 µM, first compound 0.0316 µM): 95.4% | viability, T/C (second compound 3.16 µM, first compound 0.1 µM): 94.2% | viability, T/C (second compound 10 µM, first compound 0.000316 µM): 96.4% | viability, T/C (second compound 10 µM, first compound 0.001 µM): 91.8% | viability, T/C (second compound 10 µM, first compound 0.00316 µM): 90.6% | viability, T/C (second compound 10 µM, first compound 0.01 µM): 87.8% | viability, T/C (second compound 10 µM, first compound 0.0316 µM): 90.8% | viability, T/C (second compound 10 µM, first compound 0.1 µM): 94.6%

COC1C(OC(N)=O)C(O)C(Oc2ccc3c(O)c(NC(=O)c4ccc(O)c(CC=C(C)C)c4)c(=O)oc3c2C)OC1(C)C (stereo not given)
viability, T/C (compound 0.0316 µM): 103% [middle of 12 runs] | viability, T/C (compound 0.316 µM): 102% [middle of 13 runs] | viability, T/C (compound 1 µM): 105% [middle of 13 runs] | viability, T/C (compound 3.16 µM): 107% [middle of 13 runs] | viability, T/C (compound 10 µM): 108% [middle of 13 runs] | IC50 (compound alone, run of 10/31/2023): > 10000 nM
